Columns and labels:
dopamine D2 receptor = dopamine D2 receptor (Homo sapiens (Human), UniProt P14416); test: Test IV: dopamine D2 receptor binding activity (GeneBLAzer D2-Gqo5-NEAT-bla CHO-K1 Cell-based Assay); conditions: for Dopamine D2 receptor binding activity, Activity intensity: CHO-K1 reporter cells, 5 hours
Procedure: In this test, the dopamine D2 receptor binding activity of each test compound was measured using GeneBLAzer D2-Gqo5-NEAT-bla CHO-K1 Cell-based Assay (Thermo Fisher Scientific, Inc.). The CHO cells are designed such that a signal transduction pathway is activated by addition of a drug to express a reporter gene (P lactamase). […] Therefore, the binding activity of the test compound can be measured by measuring a blue fluorescence/green fluorescence ratio. The CHO cells were inoculated at 10,000 cells/well to a 384-well plate and cultured for 16 to 20 hours in a CO2 incubator. […] A substrate mix was added to the cells and incubated at room temperature for 2 hours. […] The respective EC50 values of the test compounds were determined from the measured fluorescence ratios using GraphPad Prism 8.

[1] = test system: Leigh syndrome patient cells (KCMC10); test: Test III: suppression of BSO-induced ferroptosis, Leigh syndrome patient cells; assay type: cell-based, human; conditions: for EC50: Homo sapiens, read-out: EC50 (50% effective concentration of the suppressive effect on cell death ascribable to ferroptosis induced by BSO); for EC50 / ferroptosis inhibitory effect (judged from EC50 value): Leigh syndrome patient cells (KCMC10), BSO; for ferroptosis inhibitory effect (judged from EC50 value): Table 3; for cell death ascribable to ferroptosis induced by BSO: 100 μM BSO coadded with test compound, FIG. 32
From the text: (§1) Apomorphine and idebenone approved as a therapeutic drug for Leber's hereditary optic neuropathy in the Europe were used as control drugs.
(§2) In the drawing, A depicts the results obtained using compounds D8, D9, D10, D18, D20, D26, and D36, and B depicts the results obtained using compounds D37, D38, D39, D40, D41, D42, and D43. In the drawing, the abscissa depicts test compounds, and the ordinate depicts the cell viability (%) of each treated plot when the number of live cells in a control non-supplemented with BSO is defined as 100%.

[2] = test system: human liver cancer cell line (Huh7); test: Test V: suppression of RSL-3-induced cell death in liver cancer cell system (LDH, MTT); assay type: cell-based; parameters: key to LDH (LDH activity, cell death): relative to control without RSL-3 (= 1); conditions: Huh7, test compound 1 μM (GSK872 5 μM) 1 hour, then RSL-3 0.5 μM 24 hours, relative value, control non-supplemented with RSL-3 = 1; for viability at 1 µM: Homo sapiens, Huh-7, read-out: MTT (cell proliferation and cell viability)
Procedure: The ferroptosis inducer used was RSL-3.
At the stage where 70% confluency was attained, the medium was replaced with the medium for the test, and DMSO or each test compound (final concentration of GSK872: 5 μM, and final concentration of the other compounds: 1 μM) was added to the cells in each well, which were then cultured for 1 hour. Then, the ferroptosis inducer (final concentration: 0.5 μM) was added to the cells in each well, which were then cultured for 24 hours. After the completion of culture, cell death suppressive activity was measured with lactate dehydrogenase (LDH) activity as an index while cell proliferation and cell viability were measured with activity of reducing yellow tetrazolium salt (MTT) into formazan as an index.
The values in the table are relative values when the LDH activity and MTT value of a control non-supplemented with RSL-3 are each defined as 1.

SH-SY5Y cells = test: Test VI: inhibition of rotenone-induced neuronal death (LDH assay); assay type: cell-based, human; parameters: key: ++: the case where a concentration-dependent inhibitory effect on rotenone-induced cell death was able to be confirmed twice; +: In the third test, the case where the concentration-dependent inhibitory effect was able to be confirmed; ±: the case where no concentration-dependent inhibitory effect was able to be confirmed; −: The case where any inhibitory effect on rotenone-induced cell death was able to be confirmed in none of the two tests; conditions: rotenone 1 μM, compound 10 nM-10 μM (Apo 0.1 nM-10 μM), 48 hours
Procedure: After the completion of culture, rotenone-induced cell death was measured using Cytotoxicity LDH Assay Kit-WST (Dojindo Laboratories). […] The test was conducted twice, and the case where a concentration-dependent inhibitory effect on rotenone-induced cell death was able to be confirmed twice was rated as (++). If the inhibitory effect was confirmed in one of the two tests and no inhibitory effect was confirmed in the other test, the third test was conducted. In the third test, the case where the concentration-dependent inhibitory effect was able to be confirmed was rated as (+), and the case where no concentration-dependent inhibitory effect was able to be confirmed was rated as (±). The case where any inhibitory effect on rotenone-induced cell death was able to be confirmed in none of the two tests was rated as (−).

[3] = test system: MELAS patient cells (ME169); test: Test III: suppression of BSO-induced ferroptosis, MELAS patient cells; assay type: cell-based, human; conditions: 80 μM BSO coadded with test compound; FIG. 33
From the text: as §1, §2

[4] = test system: MELAS patient cells (ME169); test: Test III: suppression of RSL-3-induced ferroptosis, MELAS patient cells; assay type: cell-based, human; conditions: 100 nM RSL-3 coadded with test compound; FIG. 35
From the text: as §1
(§3) In the drawing, A depicts the results obtained using compounds D8, D9, D10, D18, D20, D26, and D36, and B depicts the results obtained using compounds D37, D38, D39, D40, D41, D42, and D43. In the drawing, the abscissa depicts test compounds, and the ordinate depicts the cell viability (%) of each treated plot when the number of live cells in a control non-supplemented with RSL-3 is defined as 100%.

[5] = test system: Leigh syndrome patient cells (KCMC10); test: Test III: suppression of RSL-3-induced ferroptosis, Leigh syndrome patient cells; assay type: cell-based, human; conditions: 100 nM RSL-3 coadded with test compound; FIG. 34
From the text: as §1, §3

Chain of dopamine D2 receptor (P14416 whole entry): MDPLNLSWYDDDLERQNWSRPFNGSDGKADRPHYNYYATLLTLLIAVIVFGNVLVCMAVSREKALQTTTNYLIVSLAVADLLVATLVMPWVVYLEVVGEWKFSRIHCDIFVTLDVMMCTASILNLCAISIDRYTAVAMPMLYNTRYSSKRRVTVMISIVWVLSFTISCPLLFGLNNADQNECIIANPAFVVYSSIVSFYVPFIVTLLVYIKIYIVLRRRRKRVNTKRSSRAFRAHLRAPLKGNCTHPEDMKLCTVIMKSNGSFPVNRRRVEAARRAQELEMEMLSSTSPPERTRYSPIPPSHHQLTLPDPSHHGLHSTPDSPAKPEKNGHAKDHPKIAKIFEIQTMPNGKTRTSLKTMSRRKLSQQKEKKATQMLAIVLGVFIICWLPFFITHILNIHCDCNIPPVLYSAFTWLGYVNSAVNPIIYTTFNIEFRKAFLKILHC

SMILES	dopamine D2 receptor binding activity (in words) (dopamine D2 receptor)	Dopamine D2 receptor binding activity, Activity intensity (dopamine D2 receptor)	EC50 [1] [nM]	viability at 1 µM [2] [%]	LDH (LDH activity, cell death) [2]	Inhibitory effect on rotenone-induced cell death (SH-SY5Y cells)	ferroptosis inhibitory effect (judged from EC50 value) [1]	cell death ascribable to ferroptosis induced by BSO [3]	cell death ascribable to ferroptosis induced by RSL-3 [4]	cell death ascribable to ferroptosis induced by RSL-3 [5]	cell death ascribable to ferroptosis induced by BSO [1]
CN1CCc2cccc3c2[C@H]1Cc1ccc(OCCCCl)c(O)c1-3.Cl [D39]	no or little	−	259	80	1.15	+					
CN1CCc2cccc3c2[C@H]1Cc1ccc(OCCCC(F)(F)F)c(O)c1-3.Cl [D42]	no or little	−	167	82	1.55	+	particularly high				
CN1CCc2cccc3c2[C@H]1Cc1ccc(OCCc2ccccc2)c(O)c1-3 [D48]	no or little	−	128	78	0.44	++	particularly high				
CN1CCc2cc3c(c4c2[C@H]1Cc1ccccc1-4)OCO3 [D18]	no or little	−	492					markedly suppressed	suppressed	suppressed	markedly suppressed
CN1CCc2cccc3c2[C@H]1Cc1ccc(-c2ccccc2)c(O)c1-3 [D45]	no or little	±	96	77	0.43	++	particularly high				
CCOc1ccc2c(c1O)-c1cccc3c1[C@@H](C2)N(C)CC3 [D55]	no or little	−	4	78	0.44	+	particularly high				
COc1ccc2c(c1O)-c1c(OC)c(OC)cc3c1[C@@H](C2)N(C)CC3 [D43]	no or little	−	223	49	6.52	−					
CN1CCc2cccc3c2[C@H]1Cc1ccc(OCc2ccccc2)c(O)c1-3 [D47]	no or little	−	124	71	0.39	++	particularly high				
CN1CCc2cccc3c2[C@H]1Cc1ccc(OCCCCc2ccccc2)c(O)c1-3 [D50]	no or little	−	207	60	0.43	++					
CN1CCc2cccc3c2[C@H]1Cc1ccc(OCCCO)c(O)c1-3.Cl [D38]	no or little	±		81	1.66	++	particularly high				
CCCOc1ccc2c(c1O)-c1cccc3c1[C@@H](C2)N(C)CC3.Cl [D40]	no or little	−	55	84	1.15	+	particularly high				
CCCCCCCCCOc1ccc2c(c1O)-c1cccc3c1[C@@H](C2)N(C)CC3.Cl [D41]	no or little	−	648								
CN1CCc2cccc3c2[C@H]1Cc1ccc(OCCCc2ccccc2)c(O)c1-3.Cl [D37]	no or little	−	186	80	0.85	++	particularly high				
COc1cccc2c1C[C@@H]1c3c(cc4c(c3-2)OCO4)CCN1C [D9]	no or little	−	393					markedly suppressed	suppressed	suppressed	markedly suppressed
CN1CCc2cccc3c2[C@H]1Cc1ccc(OCCC(c2ccccc2)c2ccccc2)c(O)c1-3 [D54]	no or little	−		68	0.43	−					

Source: patent US12441734B2, “Ferroptosis inhibitor and use therefor” (JICHI MEDICAL UNIVERSITY, priority 2021, dated 2025)
